# From publication PMC7873226, “Molecular mechanism and structural basis of small-molecule modulation of the gating of acid-sensing ion channel 1” (Communications Biology, 2021)
# Tests used:
# [1] = molecular target: T1, rASIC1a Y340A (Rattus norvegicus, UniProt P55926, Y340A); assay: Inhibition of pH 6.0-induced current of mutant channel Y340A; assay type: cell-based
# T1 construct: expressed in transfected cells; host or cells: CHO cells, transient transfection (GFP cDNA co-transfected separately)
# T1 sequence (P55926 1-526 Y340A): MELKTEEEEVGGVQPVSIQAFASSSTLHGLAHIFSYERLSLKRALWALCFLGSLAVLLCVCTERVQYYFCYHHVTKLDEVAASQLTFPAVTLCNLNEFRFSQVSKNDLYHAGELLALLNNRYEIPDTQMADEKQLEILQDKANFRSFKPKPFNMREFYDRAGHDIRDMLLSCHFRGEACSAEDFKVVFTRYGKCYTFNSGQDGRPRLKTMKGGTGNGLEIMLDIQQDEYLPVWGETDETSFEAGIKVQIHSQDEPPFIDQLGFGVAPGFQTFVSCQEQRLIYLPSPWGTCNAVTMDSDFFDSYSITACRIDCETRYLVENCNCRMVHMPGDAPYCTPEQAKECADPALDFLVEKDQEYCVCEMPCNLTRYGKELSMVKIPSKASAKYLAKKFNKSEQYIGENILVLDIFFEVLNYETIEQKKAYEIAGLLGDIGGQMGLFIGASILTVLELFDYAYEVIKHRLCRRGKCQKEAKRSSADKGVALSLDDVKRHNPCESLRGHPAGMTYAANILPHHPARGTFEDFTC
# Procedure: Chinese Hamster Ovary (CHO) cells stably expressing rat ASIC1a were cultured in Ham’s F12, supplemented with 10% FBS, 1% penicillin–streptomycin and 500 µg/mL G418 and incubated at 37 °C with 5% CO2. Transient transfections of rASIC1a and cASIC1 wild-type or mutant channels in CHO cells were performed with Lipofectamine 3000 (Thermo Fisher Scientific) according to the manufacturer’s recommendations. The green fluorescent protein (GFP) cDNA (at 1/10 the amount of channel cDNA) was co-transfected with channel cDNA to aid the identification of transfected cells under the microscope in patch clamp experiments. All cDNAs were sequence verified.
# Cells were freshly dissociated with CellStripper (Corning) and dispersed in a chamber on the stage of an inverted microscope. […]
# All recordings were performed at room temperature using an Axopatch 200B amplifier and pClamp 11 software (Molecular Devices). Currents were measured by whole-cell patch clamp, digitized at 10 kHz and lowpass filtered at 2 kHz. […] Responses were elicited by rapid perfusion of acidic solutions using the SF-77B Fast-Step Perfusion device (Warner Instruments) for 40 ms once every 30 s (unless indicated otherwise) and recorded till steady state was reached. […]
# [2] = molecular target: T2, ASIC2a (Rattus norvegicus, UniProt Q62962); assay: Activity at ASIC2a; assay type: cell-based; conditions: inactive at ASIC2a
# T2 sequence (Q62962 1-512): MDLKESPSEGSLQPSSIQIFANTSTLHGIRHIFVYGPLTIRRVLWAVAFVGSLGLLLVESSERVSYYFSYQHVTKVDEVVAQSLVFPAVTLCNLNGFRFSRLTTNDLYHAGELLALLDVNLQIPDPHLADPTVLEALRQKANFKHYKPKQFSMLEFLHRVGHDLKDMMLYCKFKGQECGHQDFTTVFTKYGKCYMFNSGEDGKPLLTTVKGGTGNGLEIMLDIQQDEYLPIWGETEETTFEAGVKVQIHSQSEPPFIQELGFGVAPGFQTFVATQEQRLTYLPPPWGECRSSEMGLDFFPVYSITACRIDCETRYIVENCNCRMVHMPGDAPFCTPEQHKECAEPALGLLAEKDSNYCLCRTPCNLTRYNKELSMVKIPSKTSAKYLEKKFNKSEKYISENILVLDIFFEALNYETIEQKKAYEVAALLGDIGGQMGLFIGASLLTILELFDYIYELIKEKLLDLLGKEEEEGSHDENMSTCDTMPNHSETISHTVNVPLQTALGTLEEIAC
IC50 [1] [nM],IC50 [2] [nM],Compound
260 ± 89.8,> 50000,COc1ccc(Oc2ccc(-c3nc4cc(C(=N)N)ccc4[nH]3)cc2)cc1OC [JNJ-799760]
572 ± 177,> 50000,Cc1cc(N2CC(Oc3cc(F)c4c(N)n[nH]c4c3)C2)c(F)cn1 [JNJ-67869386]
